In patent US20120208781A1, “AMINOGLYCOSIDE DOSING REGIMENS” (Achaogen, Inc., priority 2009, published 2012):
In brackets after ≈: the same amount, converted by molar mass. Where two headings read alike, the source gives them in different places.

Legend:
[1] = First-in-human phase 1 study: plasma pharmacokinetics of Compound 1; format: in vivo; conditions: for AUC(0-inf) / Cmax / clearance / half-life: both sexes, human, plasma, intravenous, human plasma, single dose
Text: The initial, first-in-human (FIH) phase 1 study was a double-blind, randomized, placebo-controlled, parallel-group, single- and multiple-dose-escalation study to assess the safety, tolerability, and pharmacokinetics of Compound 1 administered IV to healthy adult volunteers. In addition, the design of this FIH phase 1 study provided rationale and support for dosing for the proposed phase 2 study in patients with cUTI (see FIG. 11).
This study was designed with four escalating dose arms in both single-dose and multiple-dose phases. Compound 1 was formulated as a sterile solution at a concentration of 50 mg/mL in 10 mL glass vials for intravenous (IV) administration (“Compound 1 Injection”). To support high-dose, short-course therapy, the FIH phase 1 study investigated escalating doses with shorter durations at the higher dosages. At least 32 male and female healthy subjects (8 per Cohort) were randomized to receive a single dose of either Compound 1 Injection or placebo administered IV by 10 minute infusion in a double-blinded manner, as shown below:
Cohort 1a: 1 mg/kg Single Dose (SD) only
Cohort 1b: 4 mg/kg SD and Multiple Doses (MD) for 10 days
Cohort 2: 7 mg/kg SD and MD for 10 days
Cohort 3: 11 mg/kg SD and MD for 5 days
Cohort 4: 15 mg/kg SD and MD for 3 days
Blood and urine samples for safety laboratory tests were obtained during the screen period, before and after the single-dose, before and after the multiple-dose (additional samples were obtained during multiple-dose period depending on MD duration). Blood samples for PK analysis were obtained with the single dose and first and last multiple-doses at the following times:
5, 10, 15, 20, 30, 45, 60 minutes after the start of the infusion; and
1, 1.5, 2, 2.5 (Cohorts 3 and 4 only), 3, 4, 6, 8, 12, 16, 24, and 48 hours after the start of the infusion.
For subjects in the 10-day multiple-dose cohorts, additional blood samples for PK analysis were obtained predose on days 11, 13, and 15.

[2] = test system: glomerular filtration rate; experiment: First-in-human phase 1 study: renal function (BUN, Cr, iothalamate GFR); format: in vivo; conditions: healthy volunteers
Method: Safety evaluation was based on clinical observations, vital sign measurements, laboratory tests, physical examination, electrocardiogram, cochlear function, vestibular function testing, and reported adverse events. Cochlear function was evaluated by pure tone audiometry with bone conduction and otoacoustic emission (OAE) testing. Vestibular function was evaluated by electronystagmography (ENG) and Dynamic Visual Acuity (DVA) test. Laboratory tests included complete blood count (CBC), serum chemistries, and urinalysis. BUN and creatinine (Cr) were assessed daily on dosing days to allow the Investigator to monitor renal function. Results were used as criteria for dose escalation. The glomerular filtration rate (GFR) was estimated using iothalamate plasma measurements before dosing and after the multiple dose periods. GFR was also assessed by Cr clearance before dosing and after the multiple dose periods.
Iothalamate was infused the day prior to the single-dose and prior to the first multiple-dose and the day after the last multiple-dose. Blood samples for iothalamate analysis for GFR calculation were obtained prior to the start of the iothalamate infusion and the following hours after the start of the infusion: 1, 2, 4, and 8.

P. aeruginosa (PA) = experiment: MIC, broth microdilution, Brooklyn hospital isolates: P. aeruginosa; format: cell-based; conditions: Pseudomonas aeruginosa; PA (n = 33)
Method: In another study, the activity of Compound 1 against a collection of contemporary Gram-negative bacteria was determined. Unique patient isolates of P. aeruginosa (PA), A. baumannii (AB), K. pneumoniae (KP), E. coli (EC), and Enterobacter spp. (EB) from prior surveys at 16 Brooklyn, N.Y. hospitals were selected based on resistance patterns. The majority of isolates were fingerprinted by automated ribotyping. MICs were performed by broth microdilution. PCR was used to identify aminoglycoside-modifying enzymes (AMEs) in AB and KP and the KPC gene in Enterobacteriaceae (EN). The expression of the efflux genes mexA, C, E and X in PA, and adeB in AB was assessed by real-time RT-PCR.

[3] = test system: 5 major human cytochrome P450 isoforms (CYPs); experiment: Inhibition of cytochrome P450 isoforms in vitro; format: in vitro ADME
[4] = GLP 14-day repeat-dose safety study in dog; format: in vivo
Text: The guidance states that the MRSD must be derived from the no observable adverse effect level (NOAEL) obtained in Good Laboratory Practice (GLP) nonclinical animal safety studies. […] Estimation of the human equivalent dose (HED) at the NOAEL is based on both a surface area conversion factor (SACF) and the data from these studies.

[5] = 1 mg/kg, 24 hours, Cohort 1 a (1 mg/kg), compartmental (2) analysis, ± SE
[6] = 1 mg/kg, 48 hours, Cohort 1a (1 mg/kg), noncompartmental analysis, ± SD
[7] = 4 mg/kg, 24 hours, Cohort 1b (4 mg/kg), compartmental (2) analysis, ± SE
[8] = 4 mg/kg, 48 hours, Cohort 1b (4 mg/kg), noncompartmental analysis, ± SD
[9] = 7 mg/kg, 24 hours, Cohort 2 (7 mg/kg), compartmental (2) analysis, ± SE
[10] = 7 mg/kg, 48 hours, Cohort 2 (7 mg/kg), noncompartmental analysis, ± SD
[11] = 11 mg/kg, 24 hours, Cohort 3 (11 mg/kg), compartmental (2) analysis, ± SE
[12] = 11 mg/kg, 48 hours, Cohort 3 (11 mg/kg), noncompartmental analysis, ± SD
[13] = 15 mg/kg, 24 hours, Cohort 4 (15 mg/kg), compartmental (2) analysis, ± SE
[14] = 15 mg/kg, 48 hours, Cohort 4 (15 mg/kg), noncompartmental analysis, ± SD
[15] = healthy volunteers, 1-15 mg/kg IV 10 minute infusion

CN[C@@H]1[C@@H](O)[C@@H](O[C@@H]2[C@@H](O)[C@H](O[C@H]3OC(CNCCO)=CC[C@H]3N)[C@@H](N)C[C@H]2NC(=O)[C@@H](O)CCN)OC[C@]1(C)O [Compound 1, 6′-(2-Hydroxy-ethyl)-1-(4-amino-2(S)-hydroxy-butyryl)-sisomicin]
accumulation over three days ([1]; Cohort 4, 15 mg/kg every 24 hours for three days): very little, in any, accumulation | AUC(0-inf) [1, 5]: 15000 ± 1000 ng·h/mL | Cmax [1, 5]: 8000 ± 800 ng/mL | clearance [1, 5]: 1.13 mL/min/kg | half-life ([1]; 1 mg/kg, 24 hours, Cohort 1 a (1 mg/kg), compartmental (2) analysis, ± SE, read-out: t1/2 alpha (converted)): 0.5 ± 0.1 h | half-life ([1]; 1 mg/kg, 24 hours, Cohort 1 a (1 mg/kg), compartmental (2) analysis, ± SE, read-out: t1/2 beta (converted)): 3.5 ± 0.2 h | AUC(0-inf) ([1]; 1 mg/kg, 48 hours, Cohort 1a (1 mg/kg)): 14000 ± 1000 ng·h/mL | Cmax [1, 6]: 7000 ± 700 ng/mL | clearance [1, 6]: 1.23 mL/min/kg | AUC(0-inf) [1, 7]: 65000 ± 4000 ng·h/mL | Cmax [1, 7]: 38000 ± 4000 ng/mL | clearance [1, 7]: 1.03 mL/min/kg | half-life ([1]; 4 mg/kg, 24 hours, Cohort 1b (4 mg/kg), compartmental (2) analysis, ± SE, read-out: t1/2 alpha (converted)): 0.3 ± 0.1 h | half-life ([1]; 4 mg/kg, 24 hours, Cohort 1b (4 mg/kg), compartmental (2) analysis, ± SE, read-out: t1/2 beta (converted)): 3 ± 0.1 h | AUC(0-inf) ([1]; 4 mg/kg, 48 hours, Cohort 1b (4 mg/kg)): 61000 ± 8000 ng·h/mL | Cmax [1, 8]: 32000 ± 5000 ng/mL | clearance [1, 8]: 1.12 mL/min/kg | AUC(0-inf) [1, 9]: 89000 ± 4000 ng·h/mL | Cmax [1, 9]: 40000 ± 3000 ng/mL | clearance [1, 9]: 1.3 mL/min/kg | half-life ([1]; 7 mg/kg, 24 hours, Cohort 2 (7 mg/kg), compartmental (2) analysis, ± SE, read-out: t1/2 alpha (converted)): 0.7 ± 0.1 h | half-life ([1]; 7 mg/kg, 24 hours, Cohort 2 (7 mg/kg), compartmental (2) analysis, ± SE, read-out: t1/2 beta (converted)): 3.1 ± 0.1 h | AUC(0-inf) ([1]; 7 mg/kg, 48 hours, Cohort 2 (7 mg/kg)): 88000 ± 12000 ng·h/mL | Cmax [1, 10]: 46000 ± 7000 ng/mL | clearance [1, 10]: 1.35 mL/min/kg | AUC(0-inf) [1, 11]: 186000 ± 8000 ng·h/mL | Cmax [1, 11]: 106000 ± 10000 ng/mL | clearance [1, 11]: 0.983 mL/min/kg | half-life ([1]; 11 mg/kg, 24 hours, Cohort 3 (11 mg/kg), compartmental (2) analysis, ± SE, read-out: t1/2 alpha (converted)): 0.3 ± 0.1 h | half-life ([1]; 11 mg/kg, 24 hours, Cohort 3 (11 mg/kg), compartmental (2) analysis, ± SE, read-out: t1/2 beta (converted)): 3.1 ± 0.1 h | AUC(0-inf) ([1]; 11 mg/kg, 48 hours, Cohort 3 (11 mg/kg)): 176000 ± 34000 ng·h/mL | Cmax [1, 12]: 114000 ± 27000 ng/mL | clearance [1, 12]: 1.08 mL/min/kg | AUC(0-inf) [1, 13]: 250000 ± 9000 ng·h/mL | Cmax [1, 13]: 116000 ± 8000 ng/mL | clearance [1, 13]: 1 mL/min/kg | half-life ([1]; 15 mg/kg, 24 hours, Cohort 4 (15 mg/kg), compartmental (2) analysis, ± SE, read-out: t1/2 alpha (converted)): 0.8 ± 0.1 h | half-life ([1]; 15 mg/kg, 24 hours, Cohort 4 (15 mg/kg), compartmental (2) analysis, ± SE, read-out: t1/2 beta (converted)): 3.1 ± 0.2 h | AUC(0-inf) ([1]; 15 mg/kg, 48 hours, Cohort 4 (15 mg/kg)): 242000 ± 37000 ng·h/mL | half-life ([1]; 15 mg/kg, 48 hours, Cohort 4 (15 mg/kg), compartmental (2) analysis, read-out: t½ alpha (converted)): 3 h | half-life ([1]; 15 mg/kg, 48 hours, Cohort 4 (15 mg/kg), compartmental (2) analysis, read-out: t½ beta (converted)): 15 h | Cmax [1, 14]: 144000 ± 45000 ng/mL | clearance [1, 14]: 1.05 mL/min/kg | derived serum clearance rate across doses [1, 15]: remained constant | dose proportionality of plasma PK [1, 15]: clear dose proportionality | iothalamate plasma measurements (GFR) [2]: did not change | MIC50 (P. aeruginosa (PA)): 8 µg/mL (≈ 13.5 µM) | MIC90 (P. aeruginosa (PA)): 16 µg/mL (≈ 27 µM) | inhibition of the 5 major human CYPs [3]: did not inhibit | NOAEL at 14 days ([4]; dog, in vivo): 3 mg/kg | HED ([4]; from dog NOAEL, SACF 1.8): 1.7 mg/kg | new toxicities ([4]; nonclinical GLP safety studies in dogs): no new toxicities apart from those already known to the class | cardiac or respiratory safety signals ([4]; nonclinical GLP studies in dogs): no cardiac or respiratory safety signals
